pIC50, pKi: −log10 of the molar value. One block for each molecule: values may come before it.
Assays:
[1] = molecular target: T1, Melanin-concentrating hormone receptor 1 (Homo sapiens, UniProt Q99705); assay: Binding affinity to MCHR1 receptor by cell-based assay
[2] = Displacement of [Phe13, [125I]Tyr19]-MCH from human MCHR1 receptor E4Q/A5T mutant expressed in HEK 293 cell membranes by scintillation counter; settings: hek293
Rattus norvegicus [3] = assay: Antiobesity activity in obese rat assessed as reduction in body weight at 3 mg/kg, po measured on day 29; assay type: functional; design: scale not given: the % may be the effect or the level left
Rattus norvegicus [4] = assay: Antiobesity activity in obese rat assessed as reduction in body weight at 30 mg/kg, po measured on day 29; assay type: functional; design: scale not given: the % may be the effect or the level left
[5] = molecular target: T1, Melanin-concentrating hormone receptor 1; assay: Displacement of [125I]-MCH from human MCHR1 receptor expressed in CHO-K1 cell membranes after 2 hrs by scintillation proximity assay

T1 sequence (Q99705 whole entry): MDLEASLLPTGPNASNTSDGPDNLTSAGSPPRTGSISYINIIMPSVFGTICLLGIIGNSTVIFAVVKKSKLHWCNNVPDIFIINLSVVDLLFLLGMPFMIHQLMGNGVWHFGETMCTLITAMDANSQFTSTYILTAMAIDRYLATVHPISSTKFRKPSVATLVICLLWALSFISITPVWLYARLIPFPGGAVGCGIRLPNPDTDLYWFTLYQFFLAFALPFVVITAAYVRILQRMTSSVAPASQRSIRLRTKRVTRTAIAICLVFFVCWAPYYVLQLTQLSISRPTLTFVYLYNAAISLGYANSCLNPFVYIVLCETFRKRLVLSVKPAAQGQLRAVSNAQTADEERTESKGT

- Activity [1]: 50 nM
Structure (SMILES): Cc1ccc(/C=C/C(=O)Nc2ccc3nc(N4CCN(C)CC4)cc(C)c3c2)cc1

Structure (SMILES): COc1cc(-n2cnc3cc(-c4ccc(Cl)cc4)sc3c2=O)ccc1OC[C@H](O)C1CC1
- pKi [2]: 7.74

Structure (SMILES): COc1cc(-n2cnc3cc(-c4ccc(Cl)cc4)sc3c2=O)ccc1OCC1(OC(=O)CN)CC(F)(F)C1
- Activity (Rattus norvegicus [3]): 10.2%
- Activity (Rattus norvegicus [4]): 10.2%

- Activity [1]: 50 nM
Structure (SMILES): COc1ccc(/C=C/C(=O)Nc2ccc3nc(N4CCOCC4)cc(C)c3c2)cc1

Structure (SMILES): COc1cc(-n2cnc3cc(-c4ccc(Cl)cc4)sc3c2=O)ccc1OCC1(O)CC(F)(F)C1
- pKi [2]: 8.00

Structure (SMILES): COc1cc(-n2cnc3cc(-c4ccc(Cl)cc4)sc3c2=O)ccc1OC[C@H](OP(=O)(O)O)C1CC1 [BMS-830216]
- Activity (Rattus norvegicus [3]): 7.8%
- Activity (Rattus norvegicus [4]): 7.8%

- pIC50 [5]: 8.00
Structure (SMILES): CN(C)CC1CCc2cc(NC(=O)Nc3ccc(Oc4ccccc4)cc3)ccc2C1 (centres undefined)

Source: ChEMBL document CHEMBL2146433, “Melanin concentrating hormone receptor 1 (MCHR1) antagonists-Still a viable approach for obesity treatment?” (Bioorg Med Chem Lett, 2012)
